Measured values: US20100160351A1, “PHARMACEUTICAL COMPOSITIONS AND METHODS FOR TREATING HYPERURICEMIA AND RELATED DISORDERS” (NUON THERAPEUTICS, INC., priority 2008, published 2010)

Tested on: monosodium urate (MSU) crystal-induced air pouch inflammation
Assay: Air Pouch Model 4: MSU crystal air pouch, rodent model of gout
Format: in vivo, male Sprague-Dawley rats
Details: 30 min before MSU; for Average Exudate Volume, Mean / Average Plasma Extravasation, OD620 nm, Mean / Total WBC in Sample, Mean / WBC in exudate, Mean: 4 h after MSU
Experimental: The objective of this study was to evaluate the anti-inflammatory potency of Tranilast. This evaluation was carried out in male Sprague-Dawley rats in a rodent model of gout. The animals were injected subcutaneously with 20 ml of sterile air, followed three days later by a supplemental injection with 20 ml of sterile air. Six days after the initial sterile air injection, the rats were injected intravenously with Evan's Blue and pretreated for thirty minutes with oral administration of 3 mg/kg, 10 mg/kg, 30 mg/kg, 100 mg/kg, or 300 mg/kg tranilast. After the pretreatment period, the rats were injected with 150 mg of monosodium urate (MSU) crystals (10 mg/ml) into the air pouch. Four hours later, the air pouch was injected with 5 ml heparinized saline and the entire contents of the air pouch removed, recording the total volume. The air pouch contents were evaluated for plasma extravasation and total white blood cell (WBC) count.
(§1) On day 0 the rats were anesthetized in a biological cabinet, the nape of the neck was cleansed with 70% isopropanol followed by iodine tincture (VEDCO). Twenty ml sterile (0.22 μm, Millipore, Cat. SLGSV255F) air was injected subcutaneously using a 23 G×2 inch needle fixed to a 20 ml syringe. The rats were returned to routine housing. No adverse reactions were observed.
as §1, with “day 3” for “day 0”, “μm, Fisher Scientific,” for “μm, Millipore,”, “Cat. 09-720-3)” for “Cat. SLGSV255F)”
On day 6 the rats were weighed (Mettler, Model PE3000, SN: F69474) and injected intravenously injected with 2 ml/kg Evans Blue. The animals were dosed orally with 0.06 ml/kg, 0.2 ml/kg, 0.6 ml/kg, 2 ml/kg, or 6 ml/kg tranilast or 6 ml/kg vehicle.
Thirty minutes after test material administration, the rats were anesthetized and six groups (2-7) were injected into the air pouch with 15 ml MSU using a 19 G×2 inch needle fitted to a 20 ml syringe. Group 1 was injected with 15 ml saline. The rats were returned to their cages, no adverse affects were observed.
Four hours after MSU/saline injection, the rats were anesthetized and 5 ml 10 U/ml heparinized saline was injected into the air pouch. The air pouch was gently massaged, the contents immediately removed using a 14 G×1 inch needle fitted to a 6 ml syringe, and the exudate volume recorded. An aliquot of the exudate was transferred to heparin-treated microtainer tubes (Becton Dickinson, Cat. 365958) for white blood cell (WBC) counting. The remainder of the exudate was centrifuged (Hermle Labrotechnik, Model Z200A, SN: 44060036), the supernatants removed and evaluated at OD620nm (Spectronic Unicam, Model 4000 1/4, SN: 3SGD003006) for plasma extravasation.

Q: Which “Average Exudate Volume, Mean” value (3 mg/kg oral) does the source give for `COc1ccc(/C=C/C(=O)Nc2ccccc2C(=O)O)cc1OC` [Tranilast, 2-[[3-(3,4-dimethoxyphenyl)-1-oxo-2-propenyl]amino]benzoic acid] here?
A: 9.6 mL

Q: And the “Average Plasma Extravasation, OD620 nm, Mean” value (“Average Plasma Extravasation” below) (3 mg/kg oral)?
A: 1.940

Q: What about the “Total WBC in Sample, Mean” value (3 mg/kg oral) of the same molecule?
A: 368228000

Q: What about the “WBC in exudate, Mean” value (3 mg/kg oral) of the same molecule?
A: 38510000 cells/ml

Q: And the “Average Exudate Volume, Mean” value (10 mg/kg oral)?
A: 7.7 mL

Q: And the “Average Plasma Extravasation” value (10 mg/kg oral)?
A: 1.662

Q: And the “Total WBC in Sample, Mean” value (10 mg/kg oral)?
A: 471436000

Q: And the “WBC in exudate, Mean” value (10 mg/kg oral)?
A: 61200000 cells/ml

Q: And the “Average Exudate Volume, Mean” value (30 mg/kg oral)?
A: 7.1 mL

Q: And the “Average Plasma Extravasation” value (30 mg/kg oral)?
A: 1.089

Q: What about the “Total WBC in Sample, Mean” value (30 mg/kg oral) of the same molecule?
A: 286935000

Q: What about the “WBC in exudate, Mean” value (30 mg/kg oral) of the same molecule?
A: 39650000 cells/ml

Q: And the “Average Exudate Volume, Mean” value (100 mg/kg oral)?
A: 5.1 mL

Q: What about the “Average Plasma Extravasation” value (100 mg/kg oral) of the same molecule?
A: 1.180

Q: What about the “Total WBC in Sample, Mean” value (100 mg/kg oral) of the same molecule?
A: 159916000

Q: What about the “WBC in exudate, Mean” value (100 mg/kg oral) of the same molecule?
A: 31740000 cells/ml

Q: What about the “Average Exudate Volume, Mean” value (300 mg/kg oral) of the same molecule?
A: 3.9 mL

Q: And the “Average Plasma Extravasation” value (300 mg/kg oral)?
A: 0.613

Q: And the “Total WBC in Sample, Mean” value (300 mg/kg oral)?
A: 77451111

Q: What about the “WBC in exudate, Mean” value (300 mg/kg oral) of the same molecule?
A: 19466667 cells/ml

Q: What about the “inhibition of plasma extravasation” value (highest dose 300 mg/kg oral) of the same molecule?
A: 67%

Q: And the “inhibition of white blood cell infiltration” value (highest dose 300 mg/kg oral)?
A: 80%

Q: What about the “effect on MSU-induced parameters (plasma extravasation, leukocyte infiltration)” value (oral 3-300 mg/kg) of the same molecule?
A: dose-dependent inhibition
